Laboratory results taken from ChEMBL document CHEMBL5715954, “Silencing c-Myc translation as a therapeutic strategy through targeting PI3Kδ and CK1ε in hematological malignancies” (Blood, 2017).

Tests used:
Set-up in all cases: scale not given: the % may be the effect or the level left
[1] = target: Serine/threonine-protein kinase PAK 3 (Homo sapiens) (UniProt O75914); test: Inhibition of human PAK3 assessed as enzyme activity at 1 uM using RRRLSFAEPG as substrate preincubated for 20 mins followed by [gamma-33P]-ATP addition and measured after 120 mins by radiometric Hot-SpotSM Kinase assay relative to control
Chain of Serine/threonine-protein kinase PAK 3 (Homo sapiens) (O75914 whole entry, looked up): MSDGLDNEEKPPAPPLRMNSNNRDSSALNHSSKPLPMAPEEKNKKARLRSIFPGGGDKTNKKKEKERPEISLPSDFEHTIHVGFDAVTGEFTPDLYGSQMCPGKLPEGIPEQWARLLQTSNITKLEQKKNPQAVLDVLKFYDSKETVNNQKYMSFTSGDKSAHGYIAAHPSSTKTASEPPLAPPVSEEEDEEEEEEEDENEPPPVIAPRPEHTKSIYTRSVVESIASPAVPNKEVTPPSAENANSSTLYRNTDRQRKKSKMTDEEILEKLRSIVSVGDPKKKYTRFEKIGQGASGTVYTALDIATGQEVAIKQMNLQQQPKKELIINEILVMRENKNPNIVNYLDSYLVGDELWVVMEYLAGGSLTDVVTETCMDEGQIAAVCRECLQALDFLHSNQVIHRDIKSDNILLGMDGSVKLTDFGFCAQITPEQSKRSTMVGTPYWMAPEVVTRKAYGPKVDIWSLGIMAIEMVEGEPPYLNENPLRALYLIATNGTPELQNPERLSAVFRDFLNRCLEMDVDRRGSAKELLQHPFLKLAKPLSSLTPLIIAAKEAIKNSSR

[2] = target: Inactive tyrosine-protein kinase PEAK1 (Homo sapiens) (UniProt Q9H792); test: Inhibition of human PEAK1 assessed as enzyme activity at 1 uM using poly[Glu:Tyr] (4:1) as substrate preincubated for 20 mins followed by [gamma-33P]-ATP addition and measured after 120 mins by radiometric Hot-SpotSM Kinase assay relative to control
[3] = target: Tyrosine-protein kinase Fer (Homo sapiens) (UniProt P16591); test: Inhibition of human FER assessed as enzyme activity at 1 uM using poly[Glu:Tyr] (4:1) as substrate preincubated for 20 mins followed by [gamma-33P]-ATP addition and measured after 120 mins by radiometric Hot-SpotSM Kinase assay relative to control
[4] = target: Casein kinase I isoform alpha (Homo sapiens) (UniProt P48729); test: Inhibition of human CK1a1 assessed as enzyme activity at 1 uM using KRRRAL[pS]VASLPGL as substrate preincubated for 20 mins followed by [gamma-33P]-ATP addition and measured after 120 mins by radiometric Hot-SpotSM Kinase assay relative to control
[5] = target: Protein kinase C beta type (Homo sapiens) (UniProt P05771); test: Inhibition of human PKCb1 assessed as enzyme activity at 1 uM using ERMRPRKRQGSVRRRV as substrate preincubated for 20 mins followed by [gamma-33P]-ATP addition and measured after 120 mins by radiometric Hot-SpotSM Kinase assay relative to control
Chain of Protein kinase C beta type (Homo sapiens) (P05771 2-671 limits assumed): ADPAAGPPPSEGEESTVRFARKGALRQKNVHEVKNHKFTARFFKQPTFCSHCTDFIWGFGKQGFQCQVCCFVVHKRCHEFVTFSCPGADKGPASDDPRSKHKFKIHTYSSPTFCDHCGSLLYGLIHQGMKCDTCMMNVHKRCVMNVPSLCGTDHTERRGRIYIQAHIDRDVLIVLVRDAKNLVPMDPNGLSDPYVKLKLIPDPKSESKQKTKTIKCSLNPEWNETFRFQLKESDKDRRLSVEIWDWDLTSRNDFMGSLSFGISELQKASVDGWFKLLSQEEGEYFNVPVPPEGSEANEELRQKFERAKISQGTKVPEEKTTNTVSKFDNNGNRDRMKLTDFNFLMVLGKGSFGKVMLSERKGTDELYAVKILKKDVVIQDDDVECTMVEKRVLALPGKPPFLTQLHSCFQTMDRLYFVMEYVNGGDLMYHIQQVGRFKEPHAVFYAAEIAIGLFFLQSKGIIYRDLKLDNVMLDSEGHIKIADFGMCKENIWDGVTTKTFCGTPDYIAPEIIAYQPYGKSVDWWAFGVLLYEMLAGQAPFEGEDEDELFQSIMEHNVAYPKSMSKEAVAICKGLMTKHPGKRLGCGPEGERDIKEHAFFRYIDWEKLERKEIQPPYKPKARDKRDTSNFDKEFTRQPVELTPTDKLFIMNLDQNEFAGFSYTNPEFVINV

[6] = target: T1, Serine/threonine-protein kinase Nek9 (Homo sapiens) (UniProt Q8TD19); test: Inhibition of human NEK9 assessed as enzyme activity at 1 uM using myelin basic protein as substrate preincubated for 20 mins followed by [gamma-33P]-ATP addition and measured after 120 mins by radiometric Hot-SpotSM Kinase assay relative to control
T1 sequence (whole entry): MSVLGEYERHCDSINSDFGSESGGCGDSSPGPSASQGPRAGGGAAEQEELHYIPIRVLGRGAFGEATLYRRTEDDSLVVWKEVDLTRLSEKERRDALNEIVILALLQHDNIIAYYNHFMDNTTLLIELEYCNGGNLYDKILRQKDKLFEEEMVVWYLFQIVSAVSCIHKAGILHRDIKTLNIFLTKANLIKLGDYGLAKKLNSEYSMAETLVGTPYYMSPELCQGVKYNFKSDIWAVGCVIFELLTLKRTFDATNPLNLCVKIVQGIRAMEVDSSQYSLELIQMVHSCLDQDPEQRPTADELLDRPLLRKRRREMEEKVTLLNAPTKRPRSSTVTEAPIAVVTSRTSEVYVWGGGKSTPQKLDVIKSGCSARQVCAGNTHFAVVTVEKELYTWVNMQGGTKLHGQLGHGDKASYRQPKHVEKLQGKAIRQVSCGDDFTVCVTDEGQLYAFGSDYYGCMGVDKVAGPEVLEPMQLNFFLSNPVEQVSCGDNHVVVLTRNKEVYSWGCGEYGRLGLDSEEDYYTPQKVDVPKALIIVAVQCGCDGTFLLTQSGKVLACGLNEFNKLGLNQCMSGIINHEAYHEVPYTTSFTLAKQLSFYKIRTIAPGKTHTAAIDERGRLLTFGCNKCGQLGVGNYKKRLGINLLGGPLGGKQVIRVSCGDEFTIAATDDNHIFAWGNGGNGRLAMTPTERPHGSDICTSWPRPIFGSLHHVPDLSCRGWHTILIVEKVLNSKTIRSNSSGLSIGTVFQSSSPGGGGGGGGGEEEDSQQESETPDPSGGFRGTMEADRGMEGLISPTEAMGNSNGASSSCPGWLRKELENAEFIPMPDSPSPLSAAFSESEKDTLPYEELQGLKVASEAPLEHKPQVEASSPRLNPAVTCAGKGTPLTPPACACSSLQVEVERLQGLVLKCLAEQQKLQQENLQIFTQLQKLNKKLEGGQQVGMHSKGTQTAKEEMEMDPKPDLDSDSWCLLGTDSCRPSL

[7] = target: Receptor-type tyrosine-protein kinase FLT3 (Homo sapiens) (UniProt P36888); test: Inhibition of human FLT3 assessed as enzyme activity at 1 uM using EAIYAAPFAKKK as substrate preincubated for 20 mins followed by [gamma-33P]-ATP addition and measured after 120 mins by radiometric Hot-SpotSM Kinase assay relative to control
[8] = target: Fibroblast growth factor receptor 3 (Homo sapiens) (UniProt P22607); test: Inhibition of human FGFR3 assessed as enzyme activity at 1 uM using poly[Glu:Tyr] (4:1) as substrate preincubated for 20 mins followed by [gamma-33P]-ATP addition and measured after 120 mins by radiometric Hot-SpotSM Kinase assay relative to control
Chain of Fibroblast growth factor receptor 3 (Homo sapiens) (P22607 23-806 limits assumed): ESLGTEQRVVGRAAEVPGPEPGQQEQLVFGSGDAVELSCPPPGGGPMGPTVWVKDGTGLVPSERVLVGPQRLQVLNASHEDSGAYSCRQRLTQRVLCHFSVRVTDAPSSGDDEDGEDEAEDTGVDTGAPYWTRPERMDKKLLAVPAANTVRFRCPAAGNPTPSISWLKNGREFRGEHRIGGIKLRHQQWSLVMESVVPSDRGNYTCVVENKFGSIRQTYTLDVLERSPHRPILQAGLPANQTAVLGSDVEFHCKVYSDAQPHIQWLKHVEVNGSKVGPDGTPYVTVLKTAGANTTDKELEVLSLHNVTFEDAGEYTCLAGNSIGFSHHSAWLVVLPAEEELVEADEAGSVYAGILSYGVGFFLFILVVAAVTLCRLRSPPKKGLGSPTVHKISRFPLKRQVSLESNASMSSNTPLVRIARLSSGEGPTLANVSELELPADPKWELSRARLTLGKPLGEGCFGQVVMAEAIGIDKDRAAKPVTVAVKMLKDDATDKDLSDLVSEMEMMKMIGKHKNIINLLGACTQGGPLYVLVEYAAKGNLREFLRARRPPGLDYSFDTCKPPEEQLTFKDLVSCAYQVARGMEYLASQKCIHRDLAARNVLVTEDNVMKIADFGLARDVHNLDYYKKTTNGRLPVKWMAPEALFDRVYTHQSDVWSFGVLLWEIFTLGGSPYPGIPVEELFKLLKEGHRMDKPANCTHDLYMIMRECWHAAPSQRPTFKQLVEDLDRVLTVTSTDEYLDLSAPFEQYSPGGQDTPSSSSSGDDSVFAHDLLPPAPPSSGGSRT

[9] = target: Ribosomal protein S6 kinase alpha-3 (Homo sapiens) (UniProt P51812); test: Inhibition of human RSK2 assessed as enzyme activity at 1 uM using KKLNRTLSVA as substrate preincubated for 20 mins followed by [gamma-33P]-ATP addition and measured after 120 mins by radiometric Hot-SpotSM Kinase assay relative to control
[10] = target: Serine/threonine-protein kinase SIK3 (Homo sapiens) (UniProt Q9Y2K2); test: Inhibition of human SIK3 assessed as enzyme activity at 1 uM using AMARAASAAALARRR as substrate preincubated for 20 mins followed by [gamma-33P]-ATP addition and measured after 120 mins by radiometric Hot-SpotSM Kinase assay relative to control
[11] = target: Serine/threonine-protein kinase 38-like (Homo sapiens) (UniProt Q9Y2H1); test: Inhibition of human STK38L assessed as enzyme activity at 1 uM using KKRNRRLSVA as substrate preincubated for 20 mins followed by [gamma-33P]-ATP addition and measured after 120 mins by radiometric Hot-SpotSM Kinase assay relative to control
Chain of Serine/threonine-protein kinase 38-like (Homo sapiens) (Q9Y2H1 2-464 limits assumed): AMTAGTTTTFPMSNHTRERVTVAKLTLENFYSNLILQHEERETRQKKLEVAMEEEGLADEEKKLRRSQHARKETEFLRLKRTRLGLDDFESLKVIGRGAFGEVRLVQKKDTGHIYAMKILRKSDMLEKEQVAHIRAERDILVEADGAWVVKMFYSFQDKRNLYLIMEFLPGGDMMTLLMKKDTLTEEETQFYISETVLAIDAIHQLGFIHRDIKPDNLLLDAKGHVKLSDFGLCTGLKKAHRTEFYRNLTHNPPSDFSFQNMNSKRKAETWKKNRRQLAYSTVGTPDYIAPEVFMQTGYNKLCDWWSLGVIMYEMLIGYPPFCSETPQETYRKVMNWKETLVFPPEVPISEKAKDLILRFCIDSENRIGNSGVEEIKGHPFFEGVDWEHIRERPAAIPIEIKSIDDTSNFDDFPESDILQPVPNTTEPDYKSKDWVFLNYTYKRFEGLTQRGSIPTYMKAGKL

[12] = target: Tyrosine-protein kinase Lyn (Homo sapiens) (UniProt P07948); test: Inhibition of human LYN B assessed as enzyme activity at 1 uM using poly[Glu:Tyr] (4:1) as substrate preincubated for 20 mins followed by [gamma-33P]-ATP addition and measured after 120 mins by radiometric Hot-SpotSM Kinase assay relative to control
[13] = target: Proto-oncogene tyrosine-protein kinase ROS (Homo sapiens) (UniProt P08922); test: Inhibition of human ROS assessed as enzyme activity at 1 uM using KKKSPGEYVNIEFG as substrate preincubated for 20 mins followed by [gamma-33P]-ATP addition and measured after 120 mins by radiometric Hot-SpotSM Kinase assay relative to control
Chain of Proto-oncogene tyrosine-protein kinase ROS (Homo sapiens) (P08922 whole entry): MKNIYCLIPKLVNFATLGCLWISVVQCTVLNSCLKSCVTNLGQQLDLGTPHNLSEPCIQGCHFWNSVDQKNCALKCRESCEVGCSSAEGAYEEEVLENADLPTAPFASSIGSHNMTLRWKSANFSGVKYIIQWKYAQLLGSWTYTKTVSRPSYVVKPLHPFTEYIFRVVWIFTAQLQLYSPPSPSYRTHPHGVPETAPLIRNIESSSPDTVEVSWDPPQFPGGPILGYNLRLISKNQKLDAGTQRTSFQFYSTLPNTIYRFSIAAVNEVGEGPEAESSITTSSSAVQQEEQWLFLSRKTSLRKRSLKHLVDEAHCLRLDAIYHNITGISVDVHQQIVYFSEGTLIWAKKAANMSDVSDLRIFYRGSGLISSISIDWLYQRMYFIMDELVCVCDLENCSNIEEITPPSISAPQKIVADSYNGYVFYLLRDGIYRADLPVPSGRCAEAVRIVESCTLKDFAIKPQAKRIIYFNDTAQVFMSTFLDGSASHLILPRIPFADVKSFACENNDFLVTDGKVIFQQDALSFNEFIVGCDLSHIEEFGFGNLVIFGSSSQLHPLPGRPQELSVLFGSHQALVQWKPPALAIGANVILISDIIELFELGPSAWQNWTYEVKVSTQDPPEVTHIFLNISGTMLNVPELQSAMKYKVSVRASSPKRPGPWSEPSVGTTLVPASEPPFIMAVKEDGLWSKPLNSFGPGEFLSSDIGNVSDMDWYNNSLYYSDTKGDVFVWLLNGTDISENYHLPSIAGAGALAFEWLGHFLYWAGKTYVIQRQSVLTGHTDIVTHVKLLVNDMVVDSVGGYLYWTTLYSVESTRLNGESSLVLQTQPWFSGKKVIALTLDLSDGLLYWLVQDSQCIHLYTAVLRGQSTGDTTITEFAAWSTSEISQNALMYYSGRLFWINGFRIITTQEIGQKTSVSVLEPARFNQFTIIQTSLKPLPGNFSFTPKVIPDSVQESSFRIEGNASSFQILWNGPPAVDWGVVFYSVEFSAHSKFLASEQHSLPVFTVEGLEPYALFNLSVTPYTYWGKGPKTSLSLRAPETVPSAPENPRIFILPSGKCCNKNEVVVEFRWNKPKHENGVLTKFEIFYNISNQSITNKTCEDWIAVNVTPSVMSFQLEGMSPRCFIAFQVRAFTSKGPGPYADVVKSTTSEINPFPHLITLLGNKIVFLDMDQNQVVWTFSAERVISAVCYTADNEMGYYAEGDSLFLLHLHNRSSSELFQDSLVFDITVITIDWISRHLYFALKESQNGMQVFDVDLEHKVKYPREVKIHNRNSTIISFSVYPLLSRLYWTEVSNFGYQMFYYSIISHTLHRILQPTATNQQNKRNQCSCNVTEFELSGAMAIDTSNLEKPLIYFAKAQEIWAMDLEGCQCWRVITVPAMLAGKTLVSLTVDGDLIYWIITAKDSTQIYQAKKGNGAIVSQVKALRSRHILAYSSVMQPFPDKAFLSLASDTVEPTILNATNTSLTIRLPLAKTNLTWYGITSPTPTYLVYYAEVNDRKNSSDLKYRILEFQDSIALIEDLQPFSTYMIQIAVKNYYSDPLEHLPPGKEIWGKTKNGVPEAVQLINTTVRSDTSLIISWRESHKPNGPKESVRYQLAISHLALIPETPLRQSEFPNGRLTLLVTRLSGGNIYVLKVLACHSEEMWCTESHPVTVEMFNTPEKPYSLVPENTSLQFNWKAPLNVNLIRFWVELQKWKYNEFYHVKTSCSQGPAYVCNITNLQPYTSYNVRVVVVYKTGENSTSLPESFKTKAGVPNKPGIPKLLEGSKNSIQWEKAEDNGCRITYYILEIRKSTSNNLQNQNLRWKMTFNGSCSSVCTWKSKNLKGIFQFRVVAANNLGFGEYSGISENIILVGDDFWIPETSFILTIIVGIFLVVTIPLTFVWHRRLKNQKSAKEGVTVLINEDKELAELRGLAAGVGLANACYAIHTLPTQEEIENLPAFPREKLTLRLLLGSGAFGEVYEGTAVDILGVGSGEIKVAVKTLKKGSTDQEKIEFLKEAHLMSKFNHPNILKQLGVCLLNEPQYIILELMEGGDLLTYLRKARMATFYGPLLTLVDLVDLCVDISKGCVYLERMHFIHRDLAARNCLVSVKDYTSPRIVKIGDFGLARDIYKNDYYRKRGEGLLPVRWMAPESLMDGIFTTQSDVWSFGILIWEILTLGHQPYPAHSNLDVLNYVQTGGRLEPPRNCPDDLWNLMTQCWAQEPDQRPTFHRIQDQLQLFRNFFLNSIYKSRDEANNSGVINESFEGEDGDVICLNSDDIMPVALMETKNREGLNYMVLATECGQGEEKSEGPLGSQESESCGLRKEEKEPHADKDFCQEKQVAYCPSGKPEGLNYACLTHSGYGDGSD

CC[C@H](Nc1ncnc2[nH]cnc12)c1nc2cccc(F)c2c(=O)n1-c1ccccc1
Activity [1]: 94.5%
Activity [2]: 93.3%
Activity [3]: 97.2%
Activity [4]: 107%
Activity [5]: 98.7%
Activity [6]: 95.1%
Activity [7]: 99.3%
Activity [8]: 88.8%
Activity [9]: 101%
Activity [10]: 93.8%
Activity [11]: 95.1%
Activity [12]: 97.8%
Activity [13]: 98%

CC(C)Oc1ccc(-c2nn([C@@H](C)c3oc4ccc(F)cc4c(=O)c3-c3cccc(F)c3)c3ncnc(N)c23)cc1F [UMBRALISIB]
Activity [1]: 96.5%
Activity [2]: 95%
Activity [3]: 94.5%
Activity [4]: 111%
Activity [5]: 99%
Activity [6]: 91.6%
Activity [7]: 95.5%
Activity [8]: 94.3%
Activity [9]: 106%
Activity [10]: 96.6%
Activity [11]: 100%
Activity [12]: 104%
Activity [13]: 94.5%

C[C@H](Nc1ncnc2nc[nH]c12)c1cc2cccc(Cl)c2c(=O)n1-c1ccccc1
Activity [1]: 95.5%
Activity [2]: 89.4%
Activity [3]: 91.7%
Activity [4]: 111%
Activity [5]: 99.4%
Activity [6]: 94.8%
Activity [7]: 101%
Activity [8]: 93.2%
Activity [9]: 97.7%
Activity [10]: 92.6%
Activity [11]: 92.7%
Activity [12]: 102%
Activity [13]: 86.7%
